In US20110105540A1, “2-AMINO-9-[4-(4-METHOXY-PHENOXY)-PIPERIDIN-1-YL]-4-PHENYL-INDENO[1,2-D]PYRIMIDIN-5-ONE AND ITS USE AS A HIGHLY SELECTIVE ADENOSINE A2a RECEPTOR ANTAGONIST” (priority 2009, published 2011):

Tests used:
[1] = molecular target: T1, human adenosine A1 receptor (Homo sapiens, UniProt P30542); assay: Adenosine A1 Receptor Functional Assay (A1GAL2); assay type: cell-based; details: CHO-K1 cells overexpressing human A1 receptor, cAMP inducible beta-galactosidase reporter, 4 nM r-PIA/1 uM Forskolin agonist challenge
T1 construct: expressed in transfected cells; host or cells: CHO-K1
T1 sequence (P30542 1-326): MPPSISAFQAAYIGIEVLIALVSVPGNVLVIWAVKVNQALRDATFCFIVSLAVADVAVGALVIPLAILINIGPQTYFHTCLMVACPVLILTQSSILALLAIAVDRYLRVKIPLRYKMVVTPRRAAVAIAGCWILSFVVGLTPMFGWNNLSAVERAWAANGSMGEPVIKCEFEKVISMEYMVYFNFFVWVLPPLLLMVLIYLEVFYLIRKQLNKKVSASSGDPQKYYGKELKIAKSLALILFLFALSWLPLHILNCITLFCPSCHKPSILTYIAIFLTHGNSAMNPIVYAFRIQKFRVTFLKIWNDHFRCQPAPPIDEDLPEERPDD
Protocol: To initiate the functional assay, cryopreserved CHO-K1 cells overexpressing the human adenosine A1 receptor and containing a cAMP inducible beta-galactosidase reporter gene were thawed, centrifuged, DMSO containing media removed, and then seeded with fresh culture media into clear 384-well tissue culture treated plates (BD #353961) at a concentration of 10K cells/well. Prior to assay, these plates were cultured for two days at 37° C., 5% CO2, 90% Rh. On the day of the functional assay, culture media was removed and replaced with 45 μL assay medium (Hams/F-12 Modified (Mediatech #10-080CV) supplemented w/0.1% BSA). Test compounds were diluted and 11 point curves created at a 1000× concentration in 100% DMSO. Immediately after addition of assay media to the cell plates, […] of the appropriate test compound antagonist or agonist control curves were added to cell plates using a Cartesian Hummingbird. Compound curves were allowed to incubate at room temperature on cell plates for approximately 15 minutes before addition of a 4 nM r-PIA (Sigma P4532)/1 uM Forskolin (Sigma F3917) agonist challenge (5 μL volume). […] Plates were counted at 405 nm on a SpectraMax Microplate Reader (Molecular Devices). Data was analyzed in Microsoft Excel and IC/EC50 curves were fit using a standardized macro.

[2] = molecular target: T2, human adenosine A2A receptor (Homo sapiens, UniProt P29274); assay: Adenosine A2A Receptor Functional Assay (A2AGAL2); assay type: cell-based
T2 construct: expressed in transfected cells; host or cells: CHO-K1
Protocol: To initiate the functional assay, cryopreserved CHO-K1 cells overexpressing the human adenosine A2A receptor and containing a cAMP inducible beta-galactosidase reporter gene were thawed, centrifuged, DMSO containing media removed, and then seeded with fresh culture media into clear 384-well tissue culture treated plates (BD #353961) at a concentration of 10K cells/well. Prior to assay, these plates were cultured for two days at 37° C., 5% CO2, 90% Rh. On the day of the functional assay, culture media was removed and replaced with 45 μL assay medium (Hams/F-12 Modified (Mediatech #10-080CV) supplemented w/0.1% BSA). Test compounds were diluted and 11 point curves created at a 1000× concentration in 100% DMSO. Immediately after addition of assay media to the cell plates, 50 nL of the appropriate test compound antagonist or agonist control curves were added to cell plates using a Cartesian Hummingbird. Compound curves were allowed to incubate at room temperature on cell plates for approximately 15 minutes before addition of a 15 nM NECA (Sigma E2387) agonist challenge (5 μL volume). […]
The colorimetric reaction was stopped with the addition of 60 μL/well 1M sodium carbonate. Plates were counted at 405 nm on a SpectraMax Microplate Reader (Molecular Devices). Data was analyzed in Microsoft Excel and IC/EC50 curves were fit using a standardized macro.

T2 sequence (P29274 whole entry): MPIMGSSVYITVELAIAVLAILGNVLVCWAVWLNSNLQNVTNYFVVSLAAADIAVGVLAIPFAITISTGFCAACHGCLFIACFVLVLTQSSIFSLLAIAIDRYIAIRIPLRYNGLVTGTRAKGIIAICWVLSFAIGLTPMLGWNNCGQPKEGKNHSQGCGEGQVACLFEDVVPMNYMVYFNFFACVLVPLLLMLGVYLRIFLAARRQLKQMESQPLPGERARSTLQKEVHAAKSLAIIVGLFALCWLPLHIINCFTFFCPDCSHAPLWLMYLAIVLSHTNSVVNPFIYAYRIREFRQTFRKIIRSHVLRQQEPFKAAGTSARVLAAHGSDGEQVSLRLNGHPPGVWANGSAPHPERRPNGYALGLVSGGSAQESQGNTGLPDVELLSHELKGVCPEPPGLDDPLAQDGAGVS

## COc1ccc(OC2CCN(c3cccc4c3-c3nc(N)nc(-c5ccccc5)c3C4=O)CC2)cc1 [Example A, 2-Amino-9-[4-(4-methoxy-phenoxy)-piperidin-1-yl]-4-phenyl-indeno[1,2-d]pyrimidin-5-one]
[1]
  IC50: 7.3 µM
[2]; CHO-K1 cells overexpressing human A2A receptor, cAMP inducible beta-galactosidase reporter, 15 nM NECA agonist challenge
  IC50: 0.0023 µM
[2]; ratio of A1Gal2 to A2AGal2 values (selectivity for A2A over A1)
  A1/A2A: 3173.91
